Here are results for 32 compounds from US9346798B2, “Dihydrobenzoxazine and tetrahydroquinoxaline sodium channel inhibitors” (AMGEN INC., priority 2012, dated 2016).

Usually inhibition stands for the share of the control response that was lost under treatment. Broadly, the IC50 is the concentration that inhibits the measured activity by half.

SMILES strings stand for the structures.

For the first assay, the target named is Nav 1.7 (Homo sapiens (Human), UniProt Q15858). The assay is described as follows: Nav 1.7 in vitro PX assay, PatchXpress whole cell voltage clamp. Format: cell-based. Particulars: HEK293; values marked *; 4.9 μM; HEK 293 cells stably transfected with human Nav1.7; read-out: Nav 1.7 PX percent inhibition at 4.9 μM. The method, then: Nav 1.7 In Vitro PX Assay
Chain of Nav 1.7 (Q15858 whole entry): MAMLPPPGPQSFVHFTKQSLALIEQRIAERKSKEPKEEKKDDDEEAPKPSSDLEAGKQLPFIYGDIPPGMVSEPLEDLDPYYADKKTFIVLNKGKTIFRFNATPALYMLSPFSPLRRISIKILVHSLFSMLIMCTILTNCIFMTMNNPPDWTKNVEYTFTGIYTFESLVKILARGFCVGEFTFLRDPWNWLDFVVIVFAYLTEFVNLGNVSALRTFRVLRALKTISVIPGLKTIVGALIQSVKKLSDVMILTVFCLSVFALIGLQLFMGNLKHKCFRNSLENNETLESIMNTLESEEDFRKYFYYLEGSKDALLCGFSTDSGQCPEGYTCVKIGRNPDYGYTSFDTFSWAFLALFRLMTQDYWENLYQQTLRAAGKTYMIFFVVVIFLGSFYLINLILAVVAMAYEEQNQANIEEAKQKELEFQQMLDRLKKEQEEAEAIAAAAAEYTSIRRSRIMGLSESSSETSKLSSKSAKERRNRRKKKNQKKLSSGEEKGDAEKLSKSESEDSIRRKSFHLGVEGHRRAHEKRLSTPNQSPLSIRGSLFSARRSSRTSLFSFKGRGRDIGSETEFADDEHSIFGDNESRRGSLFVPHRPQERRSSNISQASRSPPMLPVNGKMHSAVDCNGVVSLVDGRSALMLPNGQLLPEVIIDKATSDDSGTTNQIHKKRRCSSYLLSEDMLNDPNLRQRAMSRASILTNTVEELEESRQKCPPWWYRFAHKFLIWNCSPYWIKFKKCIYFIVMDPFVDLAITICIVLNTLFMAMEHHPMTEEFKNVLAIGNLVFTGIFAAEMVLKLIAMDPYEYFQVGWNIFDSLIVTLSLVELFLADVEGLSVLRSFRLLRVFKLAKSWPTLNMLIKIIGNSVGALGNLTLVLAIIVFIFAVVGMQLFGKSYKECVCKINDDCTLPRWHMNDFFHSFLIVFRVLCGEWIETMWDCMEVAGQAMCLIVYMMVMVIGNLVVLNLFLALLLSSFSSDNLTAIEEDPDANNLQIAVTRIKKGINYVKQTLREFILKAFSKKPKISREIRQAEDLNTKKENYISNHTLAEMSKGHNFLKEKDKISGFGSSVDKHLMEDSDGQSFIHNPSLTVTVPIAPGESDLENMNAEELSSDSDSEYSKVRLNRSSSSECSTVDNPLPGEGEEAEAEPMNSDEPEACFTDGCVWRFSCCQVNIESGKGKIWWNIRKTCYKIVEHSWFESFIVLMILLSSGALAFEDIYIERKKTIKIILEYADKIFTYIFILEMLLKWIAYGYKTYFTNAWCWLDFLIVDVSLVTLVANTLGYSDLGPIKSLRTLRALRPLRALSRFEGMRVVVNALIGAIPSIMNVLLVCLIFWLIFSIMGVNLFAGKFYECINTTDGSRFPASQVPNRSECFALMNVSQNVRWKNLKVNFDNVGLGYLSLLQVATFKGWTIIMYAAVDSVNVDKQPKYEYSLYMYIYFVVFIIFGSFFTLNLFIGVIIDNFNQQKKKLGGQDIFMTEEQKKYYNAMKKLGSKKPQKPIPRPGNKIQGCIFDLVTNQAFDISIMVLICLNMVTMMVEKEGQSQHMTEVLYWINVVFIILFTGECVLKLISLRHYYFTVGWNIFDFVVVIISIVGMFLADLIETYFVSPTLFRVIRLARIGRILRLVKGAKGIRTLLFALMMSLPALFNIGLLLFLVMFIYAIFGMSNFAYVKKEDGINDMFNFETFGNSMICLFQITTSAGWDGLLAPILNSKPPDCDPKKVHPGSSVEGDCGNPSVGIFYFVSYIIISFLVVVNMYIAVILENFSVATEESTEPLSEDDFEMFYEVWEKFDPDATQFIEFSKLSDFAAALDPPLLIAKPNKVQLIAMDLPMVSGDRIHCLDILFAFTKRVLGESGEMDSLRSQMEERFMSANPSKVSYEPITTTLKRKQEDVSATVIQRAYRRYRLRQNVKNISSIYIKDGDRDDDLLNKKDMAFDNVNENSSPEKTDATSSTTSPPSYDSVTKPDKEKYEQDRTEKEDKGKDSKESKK
HEK 293 cells stably transfected with human Nav1.7 were recorded in whole cell voltage clamp mode with the PatchXpress automated electrophysiology system (Molecular Devices, LLC, Sunnyvale, Calif.). Compound effects were measured on a partially inactivated state of the sodium channel. Cells were clamped to a holding potential yielding 20 to 50% inactivation. To elicit sodium current, channels were activated by pulsing to −10 mV for 20 msec. This voltage protocol was repeated at a rate of 0.1 Hz throughout the experiment. A single concentration of test compound was applied to cells for a duration of 3 minutes. Peak sodium current was measured at the end of the compound addition period to determine percent inhibition. Three to five cells were tested per concentration, and IC50 curves were fitted to percent inhibition as a function of concentration.
Take `COCC1CN(c2ccc(Cl)cc2C#N)c2ccc(S(=O)(=O)Nc3nccs3)cc2O1` (centres unmarked) [Example 251, 4-(4-chloro-2-cyanophenyl)-2-(methoxymethyl)-N-(thiazol-2-yl)-3,4-dihydro-2H-benzo[b][1,4]oxazine-7-sulfonamide]: the inhibition at 4.9 µM came out at 27.8%.

Take `CC(C)(O)COc1ccccc1N1CCOc2cc(S(=O)(=O)Nc3nccs3)ccc21` [Example 253, 4-(2-(2-hydroxy-2-methylpropoxy)phenyl)-N-(thiazol-2-yl)-3,4-dihydro-2H-benzo[b][1,4]oxazine-7-sulfonamide]: the inhibition at 4.9 µM amounted to 27%.

Still in this assay, the particulars now being: HEK 293 cells stably transfected with human Nav1.7; partially inactivated state (20 to 50% inactivation).
For the compound `COc1cc(C(F)(F)F)ccc1N1C(=O)C(C)Oc2cc(S(=O)(=O)Nc3nccs3)ccc21` (racemic) [Example 263, (+/−)-4-(2-methoxy-4-(trifluoromethyl)phenyl)-2-methyl-3-oxo-N-(thiazol-2-yl)-3,4-dihydro-2H-benzo[b][1,4]oxazine-7-sulfonamide], the 50% inhibitory concentration (IC50) came to 457 nM.

With `COc1cc(C(F)(F)F)ccc1N1CCOc2cc(S(=O)(=O)Nc3nccs3)c(C#N)cc21` [Example 213, 6-Cyano-4-(2-Methoxy-4-(Trifluoromethyl)Phenyl)-N-(Thiazol-2-Yl)-3,4-Dihydro-2H-Benzo[B][1,4]Oxazine-7-Sulfonamide], half-maximal inhibition (IC50) was put at 455 nM.

`COc1ccc(C#N)cc1N1CCOc2cc(S(=O)(=O)Nc3nccs3)ccc21` [Example 225, 4-(5-Cyano-2-Methoxyphenyl)-N-(Thiazol-2-Yl)-3,4-Dihydro-2H-Benzo[B][1,4]Oxazine-7-Sulfonamide] had a half-inhibitory concentration (IC50) of 303 nM.

The compound `COCCOc1ccccc1N1CCOc2cc(S(=O)(=O)Nc3nccs3)ccc21` [Example 229, 4-(2-(2-Methoxyethoxy)Phenyl)-N-(Thiazol-2-Yl)-3,4-Dihydro-2H-Benzo[B][1,4]Oxazine-7-Sulfonamide] displayed an IC50 of 3160 nM.

In turn, `CS(=O)(=O)c1ccccc1N1CCOc2cc(S(=O)(=O)Nc3nccs3)ccc21` [Example 230, 4-(2-(Methylsulfonyl)Phenyl)-N-(Thiazol-2-Yl)-3,4-Dihydro-2H-Benzo[B][1,4]Oxazine-7-Sulfonamide] had a half-maximal inhibitory concentration (IC50) of 33600 nM.

The compound `O=S(=O)(Nc1nccs1)c1ccc2c(c1)OCCN2c1ccccc1-c1cncnc1` [Example 231, 4-(2-(Pyrimidin-5-Yl)Phenyl)-N-(Thiazol-2-Yl)-3,4-Dihydro-2H-Benzo[B][1,4]Oxazine-7-Sulfonamide] registered an IC50 of 19800 nM.

Turning to `COc1cc(C#N)ccc1N1C(=O)COc2cc(S(=O)(=O)Nc3nccs3)ccc21` [Example 232, 4-(4-Cyano-2-Methoxyphenyl)-3-Oxo-N-(Thiazol-2-Yl)-3,4-Dihydro-2H-Benzo[B][1,4]Oxazine-7-Sulfonamide], half-maximal inhibition (IC50) was put at 2010 nM.

In the case of `COc1cc(Cl)ccc1N1C(=O)COc2cc(S(=O)(=O)Nc3nccs3)ccc21` [Example 233, 4-(4-Chloro-2-Methoxyphenyl)-3-Oxo-N-(Thiazol-2-Yl)-3,4-Dihydro-2H-Benzo[B][1,4]Oxazine-7-Sulfonamide], the IC50 was 327 nM.

The compound `N#Cc1cc(C(F)(F)F)ccc1N1C(=O)COc2cc(S(=O)(=O)Nc3nccs3)ccc21` [Example 234, 4-(2-Cyano-4-(Trifluoromethyl)Phenyl)-3-Oxo-N-(Thiazol-2-Yl)-3,4-Dihydro-2H-Benzo[B][1,4]Oxazine-7-Sulfonamide] had an IC50 of 1450 nM.

With `COc1ccccc1N1C(=O)COc2cc(S(=O)(=O)Nc3nccs3)ccc21` [Example 235, 4-(2-Methoxyphenyl)-3-Oxo-N-(Thiazol-2-Yl)-3,4-Dihydro-2H-Benzo[B][1,4]Oxazine-7-Sulfonamide], the IC50 came out at 896 nM.

Take `COc1ccc(C(F)(F)F)cc1N1C(=O)COc2cc(S(=O)(=O)Nc3nccs3)ccc21` [Example 236, 4-(2-Methoxy-5-(Trifluoromethyl)Phenyl)-3-Oxo-N-(Thiazol-2-Yl)-3,4-Dihydro-2H-Benzo[B][1,4]Oxazine-7-Sulfonamide]: the IC50 was 513 nM.

`COc1ccccc1N1CCOc2cc(S(=O)(=O)Nc3ncns3)ccc21` [Example 238, 4-(2-Methoxyphenyl)-N-(1,2,4-Thiadiazol-5-Yl)-3,4-Dihydro-2H-Benzo[B][1,4]Oxazine-7-Sulfonamide] gave an IC50 of 135 nM.

Regarding `O=C1COc2cc(S(=O)(=O)Nc3nccs3)ccc2N1c1ccc(C(F)(F)F)cc1Br` [Example 239, 4-(2-Bromo-4-(Trifluoromethyl)Phenyl)-3-Oxo-N-(Thiazol-2-Yl)-3,4-Dihydro-2H-Benzo[B][1,4]Oxazine-7-Sulfonamide], it took 350 nM to reach half-maximal inhibition (IC50).

`O=C1COc2cc(S(=O)(=O)Nc3nccs3)ccc2N1c1ccc(C(F)(F)F)cc1F` [Example 240, 4-(2-Fluoro-4-(Trifluoromethyl)Phenyl)-3-Oxo-N-(Thiazol-2-Yl)-3,4-Dihydro-2H-Benzo[B][1,4]Oxazine-7-Sulfonamide] showed a half-inhibitory concentration (IC50) of 11900 nM.

Compound `O=C1COc2cc(S(=O)(=O)Nc3nccs3)ccc2N1c1ccc(C(F)(F)F)cc1Cl` [Example 241, 4-(2-Chloro-4-(Trifluoromethyl)Phenyl)-3-Oxo-N-(Thiazol-2-Yl)-3,4-Dihydro-2H-Benzo[B][1,4]Oxazine-7-Sulfonamide] returned a concentration for half-maximal inhibition (IC50) of 483 nM.

Compound `CC(O)c1ccccc1N1C(=O)COc2cc(S(=O)(=O)Nc3nccs3)ccc21` (centres unmarked) [Example 242, 4-(2-(1-Hydroxyethyl)Phenyl)-3-Oxo-N-(Thiazol-2-Yl)-3,4-Dihydro-2H-Benzo[B][1,4]Oxazine-7-Sulfonamide] yielded a concentration for half-maximal inhibition (IC50) of 5820 nM.

`N#Cc1cc(Cl)ccc1N1CCOc2cc(S(=O)(=O)Nc3ccncn3)ccc21` [Example 243, 4-(4-Chloro-2-Cyanophenyl)-N-(Pyrimidin-4-Yl)-3,4-Dihydro-2H-Benzo[B][1,4]Oxazine-7-Sulfonamide] registered a half-maximal inhibitory concentration (IC50) of 1880 nM.

`NC(=O)c1ccccc1N1CCOc2cc(S(=O)(=O)Nc3nccs3)ccc21` [Example 244, 2-(7-(N-(Thiazol-2-Yl)Sulfamoyl)-2H-Benzo[B][1,4]Oxazin-4(3H)-Yl)Benzamide] had a half-inhibitory concentration (IC50) of 5010 nM.

Compound `COc1cc(F)ccc1N1C(=O)COc2cc(S(=O)(=O)Nc3nccs3)ccc21` [Example 245, 4-(4-Fluoro-2-Methoxyphenyl)-3-Oxo-N-(Thiazol-2-Yl)-3,4-Dihydro-2H-Benzo[B][1,4]Oxazine-7-Sulfonamide] gave an IC50 of 615 nM.

`COc1ccc(F)cc1N1C(=O)COc2cc(S(=O)(=O)Nc3nccs3)ccc21` [Example 246, 4-(5-Fluoro-2-Methoxyphenyl)-3-Oxo-N-(Thiazol-2-Yl)-3,4-Dihydro-2H-Benzo[B][1,4]Oxazine-7-Sulfonamide] showed a 50% inhibitory concentration (IC50) of 540 nM.

With `Cc1cc(C(F)(F)F)ccc1N1C(=O)COc2cc(S(=O)(=O)Nc3nccs3)ccc21` [Example 247, 4-(2-Methyl-4-(Trifluoromethyl)Phenyl)-3-Oxo-N-(Thiazol-2-Yl)-3,4-Dihydro-2H-Benzo[B][1,4]Oxazine-7-Sulfonamide], half-maximal inhibition (IC50) was put at 403 nM.

As for `COc1cc(C(F)(F)F)ccc1N1C(=O)COc2cc(S(=O)(=O)Nc3ncns3)ccc21` [Example 248, 4-(2-Methoxy-4-(Trifluoromethyl)Phenyl)-3-Oxo-N-(1,2,4-Thiadiazol-5-Yl)-3,4-Dihydro-2H-Benzo[B][1,4]Oxazine-7-Sulfonamide], the midpoint of inhibition, the IC50, lay at 175 nM.

In turn, `O=S(=O)(Nc1nccs1)c1ccc2c(c1)OCCN2c1ccccc1C(O)CO` (centres unmarked) [Example 252, 4-(2-(1,2-dihydroxyethyl)phenyl)-N-(thiazol-2-yl)-3,4-dihydro-2H-benzo[b][1,4]oxazine-7-sulfonamide] had a half-maximal inhibitory concentration (IC50) of 3670 nM.

Consider `C=C(C)c1ccccc1N1CCOc2cc(S(=O)(=O)Nc3nccs3)ccc21` [Example 254, 4-(2-(prop-1-en-2-yl)phenyl)-N-(thiazol-2-yl)-3,4-dihydro-2H-benzo[b][1,4]oxazine-7-sulfonamide], for which the 50% inhibitory concentration (IC50) is 2420 nM.

For `O=S(=O)(Nc1nccs1)c1ccc2c(c1)OCCN2c1ccccc1-c1ccc(O)nc1` [Example 255, 4-(2-(6-hydroxypyridin-3-yl)phenyl)-N-(thiazol-2-yl)-3,4-dihydro-2H-benzo[b][1,4]oxazine-7-sulfonamide 2,2,2-trifluoroacetate], the IC50 worked out at 975 nM.

For the compound `NC(=O)COc1ccccc1N1CCOc2cc(S(=O)(=O)Nc3nccs3)ccc21` [Example 256, 2-(2-(7-(N-(thiazol-2-yl)sulfamoyl)-2H-benzo[b][1,4]oxazin-4(3H)-yl)phenoxy)acetamide], the midpoint of inhibition, the IC50, lay at 2220 nM.

The compound `N#CCOc1ccccc1N1CCOc2cc(S(=O)(=O)Nc3nccs3)ccc21` [Example 257, 4-(2-(cyanomethoxy)phenyl)-N-(thiazol-2-yl)-3,4-dihydro-2H-benzo[b][1,4]oxazine-7-sulfonamide] showed a concentration for half-maximal inhibition (IC50) of 408 nM.

Compound `CC(C)(O)c1ccccc1N1CCOc2cc(S(=O)(=O)Nc3nccs3)ccc21` [Example 258, 4-(2-(2-hydroxypropan-2-yl)phenyl)-N-(thiazol-2-yl)-3,4-dihydro-2H-benzo[b][1,4]oxazine-7-sulfonamide] had an IC50 of 1310 nM.

`CCc1ccccc1N1CCOc2cc(S(=O)(=O)Nc3nccs3)ccc21` [Example 259, 4-(2-ethylphenyl)-N-(thiazol-2-yl)-3,4-dihydro-2H-benzo[b][1,4]oxazine-7-sulfonamide] had an IC50 of 1600 nM.

For `O=S(=O)(Nc1nccs1)c1ccc2c(c1)OCCN2c1ccccc1Oc1ccncc1` [Example 260, 4-(2-(pyridin-4-yloxy)phenyl)-N-(thiazol-2-yl)-3,4-dihydro-2H-benzo[b][1,4]oxazine-7-sulfonamide], the midpoint of inhibition, the IC50, lay at 2260 nM.
